Each structure is given as a SMILES string.

From US12403168B1, “Method for producing a plant-based extract composition having the effect of enhancing nutrition and immunity” (priority 2024, dated 2025) come the findings set out here.

Type in all cases: in vivo
Assay [1] concerns male (Swiss albino) mice. Description: Relative weight of organs: liver, spleen, and thymus. The settings on record: CY (+) mice, 10th day after cyclophosphamide 150 mg/kg i.p.; composition 200 100 mg/kg/day, levamisole 25 mg/kg oral. Here is the method: (§1) Test subjects: the experiment was performed on healthy adult male (Swiss albino) mice, 5-6 weeks old, weighing 25±2 grams. They were nurtured to stabilize for 1 week before conducting the experiment at room temperature (27° C.-28° C.). They were fed with synthetic pellets for mice, and the drinking water was tap water.
(§2) Test sample: the composition 200 which is obtained from the example 1, and the control sample used distilled water.
(§3) Male (Swiss albino) mice were immunodeficient by intraperitoneally administering a single dose of cyclophosphamide (150 mg/kg body weight) on the first day and then orally administering the test samples continuously for 5 days.
(§4) The experiment for immune-enhancing of the composition 200 by arrangement total of 60 male mice was used for experimental (23-25 g) divided into six treatments listed in Table 5 below.
The relative weights of the organs were calculated using the following formula:
(§5) [formula] • wherein Pcq is the weight of the organ; Pct is the body weight of the mouse at the time of survey. 3) Leukocyte Count and Percentage of Leukocyte Types; • Collected tail vein blood from mice on the 5th day after CY injection. […] On the 14th day, sensitization was induced by tail vein injection with ovalbumin at a dose of 0.5 mg/kg mouse body weight. […] Measure the volume of the mouse paw at 4 hours (V1) and 24 hours (V2) after the second ovalbumin injection. The left paw that was not injected was used as the reference (Vo). Calculate the percentage of mouse paw edema using the formula: […]

Assay [2] relates to male (Swiss albino) mice. Description: Leukocyte count and percentage of leukocyte types. The conditions noted are these: CY (+) mice, 5th day after CY injection 150 mg/kg i.p.; composition 200 100 mg/kg/day, levamisole 25 mg/kg oral. Here is the method: as §1, §2, §3, §4, §5
For assay [3], the system named is male (Swiss albino) mice. In words: Cellular immune response (delayed hypersensitivity), ovalbumin mouse paw edema. The settings on record: CY (+) mice, cyclophosphamide 150 mg/kg i.p., composition 200 100 mg/kg/day, levamisole 25 mg/kg oral. Here is the method: as §1, §2, §3, §4
[formula] • wherein Pcq is the weight of the organ; Pct is the body weight of the mouse at the time of survey. 3) Leukocyte Count and Percentage of Leukocyte Types; • Collected tail vein blood from mice on the 5th day after CY injection. […] On the 14th day, sensitization was induced by tail vein injection with ovalbumin at a dose of 0.5 mg/kg mouse body weight. […] Measure the volume of the mouse paw at 4 hours (V1) and 24 hours (V2) after the second ovalbumin injection. The left paw that was not injected was used as the reference (Vo). […]

`c1ccc([C@H]2CN3CCSC3=N2)cc1` [levamisole]: in the assay on male (Swiss albino) mice [1], the “relative weight of liver” value amounted to 5.074 ± 0.189 g %, the “relative weight of spleen” value was determined as 0.343 ± 0.031 g % and the “relative weight of thymus” value was determined as 0.073 ± 0.013 g %. Moreover, in the assay on male (Swiss albino) mice [2], the “% Lymphocyte” value worked out at 59.56 ± 4.42%, the “% Monocyte” value came out at 14.06 ± 3.64% and the “% Neutrophil” value came to 10.81 ± 1.18%. In addition, the “% V4h, percentage of the mouse paw edema after 4 hours” value with male (Swiss albino) mice [3] (4 hours after second ovalbumin injection) was determined as 81.27 ± 7.52%. The “% V24 h, percentage of the mouse paw edema after 24 hours” value with male (Swiss albino) mice [3] (24 hours after second ovalbumin injection) amounted to 38.28 ± 7.12%.
